Results on 2 compounds are retold here after article PMC6943742, “Peptide/Peptoid Hybrid Oligomers: The Influence of Hydrophobicity and Relative Side-Chain Length on Antibacterial Activity and Cell Selectivity” (Molecules, 2019).

Data set [1] in a line: in vitro. The data set is classed as cell-based. To be noted: human. The method, boiled down:
(§1)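 HepG2 cells at 80−90% confluency exposed 48 h (37 °C, 5% CO2) to two-fold serial dilutions over 10–1280 μg/mL. Viability by MTT (0.2 mg/mL, 3 h), A540 after DMSO solubilisation, as % of untreated control; IC50 from curve fit.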

The subject of data set [2] is HepG2 cell line ATCC HB-8065. As to the kind of experiment: in vitro. The data set is classed as cell-based. Conditions: 48 h. The method, boiled down:
as §1

A further data set relates to S. aureus ATCC 29213. The class given is cell-based. Conditions: ATCC 29213, 20 h. The method, boiled down:
(§2)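 MIC by broth microdilution (modified Hancock protocol) in Mueller-Hinton broth with 4 mg/L each of Mg2+ and Ca2+, ~2 × 10^5 CFU/mL, in non-binding plates. Compounds were diluted in 0.01% acetic acid/0.2% BSA. Plates were read after 20 h at 35 °C with 220 rpm shaking.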

The subject of a further data set is A. baumannii ATCC 19606. The data set is classed as cell-based. Conditions: ATCC 19606, 20 h. Summed up: as §2
Another data set concerns K. pneumoniae ATCC 13883. The data set is classed as cell-based. To be noted: ATCC 13883, 20 h. Summed up:
as §2

The next data set has as its system P. aeruginosa ATCC 27853. The class given is cell-based. Conditions: ATCC 27853, 20 h. Summed up: as §2
The test system of a further data set is P. aeruginosa PAO1. The class given is cell-based. Conditions: PAO1, 20 h. Summed up:
as §2

For the next data set, the system named is E. faecalis ATCC 29212. The class given is cell-based. To be noted: ATCC 29212, 20 h. The method, boiled down:
as §2

The next data set deals with E. coli ATCC 25922. The data set is classed as cell-based. Conditions: ATCC 25922, 20 h. Summed up: as §2
Data set [3] in a line: in vitro. The data set is classed as cell-based. To be noted: human, Hemolytic Activity (percentage hemolysis). Summed up: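 Washed fresh human erythrocytes, as a 0.5% v/v suspension, were mixed with an equal volume of twofold peptidomimetic dilutions in PBS and incubated 60 min at 37 °C. Hemoglobin released into the supernatant was read at OD 405 nm, with 0.1% SDS as 100% and PBS as 0% hemolysis. Test concentrations were 200, 400 and 800 μg/mL.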

Data set [4] can be described thus: Relative hydrophobicity by RP-HPLC (% MeCN at peak elution). To be noted: RP-HPLC gradient 0 → 60% B during 10 min; % MeCN at peak elution calculated from retention time. The data set is classed as physicochemical.
Details of data set [5]: method as in PMID 29198866. To be noted: peptoid oligomers; cited from earlier work.
Another data set relates to human red blood cells. To be noted: cited from earlier work.

In brackets after ≈: the same amount, converted by molar mass. Non-standard residues stand in square brackets, D forms with d. Residues, ends and D or L forms follow the SMILES beside them. Nphe = O=C(O)CNCc1ccccc1

The compound `NCCCC[C@H](NC(=O)CN(Cc1ccccc1)C(=O)[C@H](CCCCN)NC(=O)CN(Cc1ccccc1)C(=O)[C@H](CCCCN)NC(=O)CN(Cc1ccccc1)C(=O)[C@H](CCCCN)NC(=O)CN(Cc1ccccc1)C(=O)[C@H](CCCCN)NC(=O)CN(Cc1ccccc1)C(=O)[C@@H](N)CCCCN)C(=O)N(CC(N)=O)Cc1ccccc1` [Peptidomimetic 11] (H-K[Nphe]K[Nphe]K[Nphe]K[Nphe]K[Nphe]K[Nphe]-NH2) gave a viability at 48 h, 1280 µg/mL in “in vitro [1]” of 76%. In addition, the “IC50 for inhibiting growth of HepG2 cells” value in [2] is recorded as above 1280 µg/mL. Also, the MIC is above 64 µg/mL in the data set with S. aureus ATCC 29213; above 64 µg/mL with A. baumannii ATCC 19606; 64 µg/mL (≈ 38.3 µM) in the data set with K. pneumoniae ATCC 13883; 4 µg/mL (≈ 2.4 µM) against P. aeruginosa ATCC 27853; 8 to 16 µg/mL against P. aeruginosa PAO1; above 64 µg/mL in the data set on E. faecalis ATCC 29212. The compound also gave an MIC in the data set with E. coli ATCC 25922 of 4 to 8 µg/mL. Besides, in “in vitro [3]”, the hemolysis at 60 min, 800 µg/mL was found to be 10%. The “Hydrophobicity (% MeCN at elution)” value in [4] is listed as 36.9%.

Consider H-(NLys-Nspe-Nspe)4-NH2, for which the “Hydrophobicity (% MeCN at peak elution)” value in data set [5] is recorded as 53.6 % MeCN. The “Concentration resulting in 10% hemolysis” value with human red blood cells is on record as 9.1 µM.
